The text below walks through data of article PMC11549461, “Stability of immobilized L-arginine deiminase from Penicillium chrysogenum and evaluation of its anticancer activity” (Scientific Reports, 2024).

This experiment deals with L-arginine deiminase (ADI). Put plainly: Lineweaver-Burk plot; ammonia release with Nessler's reagent. The settings on record: free enzyme; pH and temperature of the kinetic assay not given. Type of experiment: biochemical, Penicillium chrysogenum.

One may read the Km as the substrate concentration at which the rate is half of its maximum. In the case of `N=C(N)NCCC[C@H](N)C(=O)O` [L-arginine], the Km amounted to 760 µM.
